Laboratory results: PMC7156458, “Synthetic biology based construction of biological activity-related library of fungal decalin-containing diterpenoid pyrones” (Nature Communications, 2020)

Biological target: Aβ42 (Homo sapiens, UniProt P05067)
Test: Th-T (thioflavin-T) assay of Aβ42 aggregation
Format: biochemical
Details: for Th-T assay plate reading, mean of three wells (Supplementary Fig. 47): source data, Ab alone and No Ab as controls

Sequence of Aβ42 (P05067 672-713): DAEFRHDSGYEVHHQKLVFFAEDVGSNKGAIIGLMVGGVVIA

## C=C1CC[C@H]2[C@]3(C)C[C@@H](C=C(C)C)O[C@H]3CC[C@]2(C)[C@@H]1Cc1c(O)c(C)c(C)oc1=O [Compound 5, subglutinol A]
Aβ42 aggregation time course, reading M117
  Th-T fluorescence, mean of three wells: 2.674
Aβ42 aggregation time course, reading M118
  Th-T fluorescence, mean of three wells: 2.686
Aβ42 aggregation time course, reading M119
  Th-T fluorescence, mean of three wells: 2.671
Aβ42 aggregation time course, reading M120
  Th-T fluorescence, mean of three wells: 2.6965
Aβ42 aggregation time course, reading M121
  Th-T fluorescence, mean of three wells: 2.686
Aβ42 aggregation time course, reading M122
  Th-T fluorescence, mean of three wells: 2.656
Aβ42 aggregation time course, reading M123
  Th-T fluorescence, mean of three wells: 2.683
Aβ42 aggregation time course, reading M124
  Th-T fluorescence, mean of three wells: 2.652
Aβ42 aggregation time course, reading M125
  Th-T fluorescence, mean of three wells: 2.669
Aβ42 aggregation time course, reading M126
  Th-T fluorescence, mean of three wells: 2.668
Aβ42 aggregation time course, reading M127
  Th-T fluorescence, mean of three wells: 2.67
Aβ42 aggregation time course, reading M128
  Th-T fluorescence, mean of three wells: 2.643
Aβ42 aggregation time course, reading M129
  Th-T fluorescence, mean of three wells: 2.642
Aβ42 aggregation time course, reading M130
  Th-T fluorescence, mean of three wells: 2.649
Aβ42 aggregation time course, reading M131
  Th-T fluorescence, mean of three wells: 2.67
Aβ42 aggregation time course, reading M132
  Th-T fluorescence, mean of three wells: 2.65
Aβ42 aggregation time course, reading M133
  Th-T fluorescence, mean of three wells: 2.648
Aβ42 aggregation time course, reading M134
  Th-T fluorescence, mean of three wells: 2.64
Aβ42 aggregation time course, reading M135
  Th-T fluorescence, mean of three wells: 2.652
Aβ42 aggregation time course, reading M136
  Th-T fluorescence, mean of three wells: 2.674
Supplementary Fig. 47, reading M137
  Th-T fluorescence, mean of three wells: 2.698
Supplementary Fig. 47, reading M138
  Th-T fluorescence, mean of three wells: 2.649
Supplementary Fig. 47, reading M139
  Th-T fluorescence, mean of three wells: 2.636
Supplementary Fig. 47, reading M140
  Th-T fluorescence, mean of three wells: 2.665
Supplementary Fig. 47, reading M141
  Th-T fluorescence, mean of three wells: 2.631
Supplementary Fig. 47, reading M142
  Th-T fluorescence, mean of three wells: 2.63
Supplementary Fig. 47, reading M143
  Th-T fluorescence, mean of three wells: 2.626
Supplementary Fig. 47, reading M144
  Th-T fluorescence, mean of three wells: 2.617
Supplementary Fig. 47, reading M145
  Th-T fluorescence, mean of three wells: 2.644
Supplementary Fig. 47 source data, measurement M37 of time course
  Th-T fluorescence, mean of three wells: 2.596
Supplementary Fig. 47 source data, measurement M38 of time course
  Th-T fluorescence, mean of three wells: 2.604
Supplementary Fig. 47 source data, measurement M39 of time course
  Th-T fluorescence, mean of three wells: 2.6132
Supplementary Fig. 47 source data, measurement M40 of time course
  Th-T fluorescence, mean of three wells: 2.619
Supplementary Fig. 47 source data, measurement M41 of time course
  Th-T fluorescence, mean of three wells: 2.62
Supplementary Fig. 47 source data, measurement M42 of time course
  Th-T fluorescence, mean of three wells: 2.62
Supplementary Fig. 47 source data, measurement M43 of time course
  Th-T fluorescence, mean of three wells: 2.6737
Supplementary Fig. 47 source data, measurement M44 of time course
  Th-T fluorescence, mean of three wells: 2.6589
Supplementary Fig. 47 source data, measurement M45 of time course
  Th-T fluorescence, mean of three wells: 2.678
Supplementary Fig. 47 source data, measurement M46 of time course
  Th-T fluorescence, mean of three wells: 2.668
Supplementary Fig. 47 source data, measurement M47 of time course
  Th-T fluorescence, mean of three wells: 2.664
Supplementary Fig. 47 source data, measurement M48 of time course
  Th-T fluorescence, mean of three wells: 2.673
Supplementary Fig. 47 source data, measurement M49 of time course
  Th-T fluorescence, mean of three wells: 2.687
Supplementary Fig. 47 source data, measurement M50 of time course
  Th-T fluorescence, mean of three wells: 2.7097
Supplementary Fig. 47 source data, measurement M51 of time course
  Th-T fluorescence, mean of three wells: 2.667
Supplementary Fig. 47 source data, measurement M52 of time course
  Th-T fluorescence, mean of three wells: 2.696
Supplementary Fig. 47 source data, measurement M53 of time course
  Th-T fluorescence, mean of three wells: 2.692
Supplementary Fig. 47 source data, measurement M54 of time course
  Th-T fluorescence, mean of three wells: 2.717
Supplementary Fig. 47 source data, measurement M55 of time course
  Th-T fluorescence, mean of three wells: 2.693
Supplementary Fig. 47 source data, measurement M56 of time course
  Th-T fluorescence, mean of three wells: 2.698
Measurement M1
  Th-T assay plate reading, mean of three wells (Supplementary Fig. 47): 0.28
Measurement M2
  Th-T assay plate reading, mean of three wells (Supplementary Fig. 47): 0.2885
Measurement M3
  Th-T assay plate reading, mean of three wells (Supplementary Fig. 47): 0.3145
Measurement M4
  Th-T assay plate reading, mean of three wells (Supplementary Fig. 47): 0.3563
Measurement M5
  Th-T assay plate reading, mean of three wells (Supplementary Fig. 47): 0.4309
Measurement M6
  Th-T assay plate reading, mean of three wells (Supplementary Fig. 47): 0.5173
Measurement M7
  Th-T assay plate reading, mean of three wells (Supplementary Fig. 47): 0.5869
Measurement M8
  Th-T assay plate reading, mean of three wells (Supplementary Fig. 47): 0.6432
Measurement M9
  Th-T assay plate reading, mean of three wells (Supplementary Fig. 47): 0.6839
Measurement M10
  Th-T assay plate reading, mean of three wells (Supplementary Fig. 47): 0.7213
Measurement M11
  Th-T assay plate reading, mean of three wells (Supplementary Fig. 47): 0.7671
Measurement M12
  Th-T assay plate reading, mean of three wells (Supplementary Fig. 47): 0.8255
Measurement M13
  Th-T assay plate reading, mean of three wells (Supplementary Fig. 47): 0.9138
Measurement M14
  Th-T assay plate reading, mean of three wells (Supplementary Fig. 47): 1.049
Measurement M15
  Th-T assay plate reading, mean of three wells (Supplementary Fig. 47): 1.273
Measurement M16
  Th-T assay plate reading, mean of three wells (Supplementary Fig. 47): 1.57
Reading M17, Supplementary Fig. 47 source data
  Th-T fluorescence, mean of three wells: 1.838
Reading M18, Supplementary Fig. 47 source data
  Th-T fluorescence, mean of three wells: 2.054
Reading M19, Supplementary Fig. 47 source data
  Th-T fluorescence, mean of three wells: 2.206
Reading M20, Supplementary Fig. 47 source data
  Th-T fluorescence, mean of three wells: 2.312
Reading M21, Supplementary Fig. 47 source data
  Th-T fluorescence, mean of three wells: 2.3414
Reading M22, Supplementary Fig. 47 source data
  Th-T fluorescence, mean of three wells: 2.381
Reading M23, Supplementary Fig. 47 source data
  Th-T fluorescence, mean of three wells: 2.384
Reading M24, Supplementary Fig. 47 source data
  Th-T fluorescence, mean of three wells: 2.421
Reading M25, Supplementary Fig. 47 source data
  Th-T fluorescence, mean of three wells: 2.421
Reading M26, Supplementary Fig. 47 source data
  Th-T fluorescence, mean of three wells: 2.4278
Reading M27, Supplementary Fig. 47 source data
  Th-T fluorescence, mean of three wells: 2.452
Reading M28, Supplementary Fig. 47 source data
  Th-T fluorescence, mean of three wells: 2.461
Reading M29, Supplementary Fig. 47 source data
  Th-T fluorescence, mean of three wells: 2.478
Reading M30, Supplementary Fig. 47 source data
  Th-T fluorescence, mean of three wells: 2.514
Reading M31, Supplementary Fig. 47 source data
  Th-T fluorescence, mean of three wells: 2.5151
Reading M32, Supplementary Fig. 47 source data
  Th-T fluorescence, mean of three wells: 2.555
Reading M33, Supplementary Fig. 47 source data
  Th-T fluorescence, mean of three wells: 2.5475
Reading M34, Supplementary Fig. 47 source data
  Th-T fluorescence, mean of three wells: 2.566
Reading M35, Supplementary Fig. 47 source data
  Th-T fluorescence, mean of three wells: 2.566
Reading M36, Supplementary Fig. 47 source data
  Th-T fluorescence, mean of three wells: 2.598
Time course, reading M57
  Th-T fluorescence, mean of three wells: 2.692
Time course, reading M58
  Th-T fluorescence, mean of three wells: 2.694
Time course, reading M59
  Th-T fluorescence, mean of three wells: 2.7314
Time course, reading M60
  Th-T fluorescence, mean of three wells: 2.723
Time course, reading M61
  Th-T fluorescence, mean of three wells: 2.703
Time course, reading M62
  Th-T fluorescence, mean of three wells: 2.708
Time course, reading M63
  Th-T fluorescence, mean of three wells: 2.7
Time course, reading M64
  Th-T fluorescence, mean of three wells: 2.715
Time course, reading M65
  Th-T fluorescence, mean of three wells: 2.696
Time course, reading M66
  Th-T fluorescence, mean of three wells: 2.7072
Time course, reading M67
  Th-T fluorescence, mean of three wells: 2.703
time-course reading M97, Supplementary Fig. 47 source data
  Th-T fluorescence, mean of three wells: 2.693
time-course reading M98, Supplementary Fig. 47 source data
  Th-T fluorescence, mean of three wells: 2.706
time-course reading M99, Supplementary Fig. 47 source data
  Th-T fluorescence, mean of three wells: 2.707
time-course reading M100, Supplementary Fig. 47 source data
  Th-T fluorescence, mean of three wells: 2.682
time-course reading M101, Supplementary Fig. 47 source data
  Th-T fluorescence, mean of three wells: 2.67
time-course reading M102, Supplementary Fig. 47 source data
  Th-T fluorescence, mean of three wells: 2.671
time-course reading M103, Supplementary Fig. 47 source data
  Th-T fluorescence, mean of three wells: 2.705
time-course reading M104, Supplementary Fig. 47 source data
  Th-T fluorescence, mean of three wells: 2.674
time-course reading M105, Supplementary Fig. 47 source data
  Th-T fluorescence, mean of three wells: 2.704
time-course reading M106, Supplementary Fig. 47 source data
  Th-T fluorescence, mean of three wells: 2.676
time-course reading M107, Supplementary Fig. 47 source data
  Th-T fluorescence, mean of three wells: 2.6621
time-course reading M108, Supplementary Fig. 47 source data
  Th-T fluorescence, mean of three wells: 2.675
time-course reading M109, Supplementary Fig. 47 source data
  Th-T fluorescence, mean of three wells: 2.6837
time-course reading M110, Supplementary Fig. 47 source data
  Th-T fluorescence, mean of three wells: 2.682
time-course reading M111, Supplementary Fig. 47 source data
  Th-T fluorescence, mean of three wells: 2.679
time-course reading M112, Supplementary Fig. 47 source data
  Th-T fluorescence, mean of three wells: 2.691
time-course reading M113, Supplementary Fig. 47 source data
  Th-T fluorescence, mean of three wells: 2.675
time-course reading M114, Supplementary Fig. 47 source data
  Th-T fluorescence, mean of three wells: 2.674
time-course reading M115, Supplementary Fig. 47 source data
  Th-T fluorescence, mean of three wells: 2.688
time-course reading M116, Supplementary Fig. 47 source data
  Th-T fluorescence, mean of three wells: 2.67
